From publication PMC9090415, “Discovery of small molecule inhibitors of Plasmodium falciparum apicoplast DNA polymerase” (Journal of Enzyme Inhibition and Medicinal Chemistry, 2022)

Target: P. falciparum apicoplast DNA polymerase (Pf-apPOL) (Plasmodium falciparum, UniProt Q8ILY1)
Experiment: Fluorescence-based high-throughput DNA polymerase assay (molecular beacon), primary screen and dose-response
Type: biochemical
Description: The HT assay employs a molecular beacon, a stem-loop DNA template with a Cy3 dye and the Black Hole Quencher on the 3′ and 5′ ends of the DNA, respectively. Pf-apPOL concentration is based on a calculated absorptivity of ε280 = 56750 M^−1 cm^−1. Reactions were carried out at 25 °C, using Corning 3575 […] (well-volume, 20 µL). Assays testing for compound inhibition composed of reaction buffer (pH 7.9 in 50 mM potassium acetate, 20 mM Tris-acetate and 10 mM magnesium acetate), Pf-apPOL (20 nM), DNA substrate (20 nM), dNTPs (6 µM), and compound (10 µM in DMSO). The DNA and nucleotide substrates (dNTPs) were at concentrations of 20 nM and 6 µM, respectively, in the assay. Pf-apPOL was incubated in the reaction buffer with dNTPs and the compound of interest (10 µM, in the assay) at 25 °C for 10 min. The DNA substrate was then added and the reaction was allowed to proceed for 90 min at 25 °C.
Each assay plate contained 16 negative controls (no Pf-apPOL, DMSO present) and 16 positive controls (Pf-apPOL present, no DMSO). The fluorescence of each well was determined using a BioTek Synergy Neo fluorescence plate reader using excitation and emission wavelengths of 555 and 570 nm, respectively.
In the above, Min is the average of fluorescence emission of the negative controls (substrate only), Max the average fluorescence emission from the positive controls (enzyme + substrate), and Test the emission from the assays in the presence of compounds (enzyme + compound + substrates). […] […] The IC50 of each compound was determined using Equation (2): (2) IC50= Vmax/(1+ (I/IC50)^n)
In the above, n measures cooperativity, with n > 1 indicating synergistic binding of more than a single molecule of the compound.
To identify apPOL inhibitors we utilised our previously developed high-throughput DNA polymerase assay. The HT assay is based on a molecular beacon DNA template that forms a stem-loop with a Cy3 dye and the Black Hole Quencher on the 3′ and 5′ ends of the DNA, respectively. DNA polymerase activity extends an annealed primer through the stem region, displacing the fluorophore from the quencher, thereby increasing its fluorescence (Figure 1(A)). The assay accurately recapitulates the kinetic behaviour of apPOL, as measured through more conventional low-throughput gel-based assays. The Z′ factor for the assay described here was 0.9 across all plates (data not shown).
Figure 1. High-throughput screening. (A) The fluorescent-based DNA polymerase assay used to screen the compound libraries. The DNA template strand is a hairpin loop with a primer annealed to the loop. The 3’ end of the primer is 11 bases away from the 6 bp duplex. Strand displacement activity of the DNA polymerase separates the Cy3 dye from the Black hole quencher leading to an increase in fluorescent signal. (B) The high-throughput assay workflow. The DNA polymerase is incubated with […] compound for 10 min prior to addition of the hairpin substrate. The reaction is quenched at 3 different time points and the fluorescent signal is measured and % inhibition is determined using the provided equation.

Chain of P. falciparum apicoplast DNA polymerase (Pf-apPOL) (Q8ILY1 entry or part of it): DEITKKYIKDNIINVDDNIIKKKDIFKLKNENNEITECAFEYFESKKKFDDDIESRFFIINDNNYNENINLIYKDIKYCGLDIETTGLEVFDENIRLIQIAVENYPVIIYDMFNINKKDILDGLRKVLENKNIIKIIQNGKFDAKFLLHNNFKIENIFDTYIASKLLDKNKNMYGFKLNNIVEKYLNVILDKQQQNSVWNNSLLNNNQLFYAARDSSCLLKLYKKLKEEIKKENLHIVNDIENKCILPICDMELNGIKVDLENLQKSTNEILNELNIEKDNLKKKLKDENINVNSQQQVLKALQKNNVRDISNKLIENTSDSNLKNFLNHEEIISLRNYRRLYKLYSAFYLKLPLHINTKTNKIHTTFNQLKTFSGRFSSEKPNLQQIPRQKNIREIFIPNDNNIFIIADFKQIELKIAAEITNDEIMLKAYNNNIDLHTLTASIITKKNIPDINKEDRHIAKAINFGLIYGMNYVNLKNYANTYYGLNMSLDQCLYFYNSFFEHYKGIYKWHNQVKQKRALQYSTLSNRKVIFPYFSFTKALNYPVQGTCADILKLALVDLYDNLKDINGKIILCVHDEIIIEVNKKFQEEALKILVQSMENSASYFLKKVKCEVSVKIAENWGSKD

SMILES: Oc1cccnc1/N=C/c1cc(I)cc(I)c1O [KU0073720]
- % inhibition Apo pol 10' (DRC-1; concentration 2.5; 10'): 24.1498%
- % inhibition Apol 90' (DRC-1; concentration 2.5; 90'): 12.6325%
- % inhibition apPOL 180' (DRC-1; concentration 2.5; 180'): 7.269%
- % inhibition Apo pol 10' (DRC-1; concentration 5; 10'): 35.1256%
- % inhibition Apol 90' (DRC-1; concentration 5; 90'): 18.9546%
- % inhibition apPOL 180' (DRC-1; concentration 5; 180'): 7.696%
- % inhibition Apo pol 10' (DRC-1; concentration 10; 10'): 54.1581%
- % inhibition Apol 90' (DRC-1; concentration 10; 90'): 35.5541%
- % inhibition apPOL 180' (DRC-1; concentration 10; 180'): 22.0989%
- % inhibition Apo pol 10' (DRC-1; concentration 20; 10'): 82.6757%
- % inhibition Apol 90' (DRC-1; concentration 20; 90'): 72.4882%
- % inhibition apPOL 180' (DRC-1; concentration 20; 180'): 62.032%
- % inhibition Apo pol 10' (DRC-1; concentration 40; 10'): 88.0061%
- % inhibition Apol 90' (DRC-1; concentration 40; 90'): 85.8588%
- % inhibition apPOL 180' (DRC-1; concentration 40; 180'): 82.0572%
- % inhibition Apo pol 10' (DRC-1; concentration 80 (unit not given); 10'): 86.1265%
- % inhibition Apol 90' (DRC-1; concentration 80; 90'): 87.3428%
- % inhibition apPOL 180' (DRC-1; concentration 80; 180'): 87.5745%
- % inhibition Apo pol 5' (DRC-2; 5'; concentration 40): 63%
- % inhibition Apol 40' (DRC-2; 40'; concentration 20): 63%
- % inhibition Apo pol 5' (DRC-2; concentration 2.5; 5'): 26%
- % inhibition Apol 40' (DRC-2; concentration 2.5; 40'): 24%
- % inhibition ApPOL 90' (DRC-2; concentration 2.5; 90'): 22%
- % inhibition apPOL 180' (DRC-2; concentration 2.5; 180'): 15%
- % inhibition Apo pol 5' (DRC-2; concentration 5; 5'): 36%
- % inhibition Apol 40' (DRC-2; concentration 5; 40'): 33%
- % inhibition ApPOL 90' (DRC-2; concentration 5; 90'): 28%
- % inhibition apPOL 180' (DRC-2; concentration 5; 180'): 17%
- % inhibition Apo pol 5' (DRC-2; concentration 10; 5'): 51%
- % inhibition Apol 40' (DRC-2; concentration 10; 40'): 52%
- % inhibition ApPOL 90' (DRC-2; concentration 10; 90'): 49%
- % inhibition apPOL 180' (DRC-2; concentration 10; 180'): 37%
- % inhibition Apo pol 5' (DRC-2; concentration 20; 5'): 57%
- % inhibition Apol 40' (DRC-2; concentration 20; 40'): 63%
- % inhibition ApPOL 90' (DRC-2; concentration 20; 90'): 62%
- % inhibition apPOL 180' (DRC-2; concentration 20; 180'): 54%
- % inhibition Apo pol 5' (DRC-2; concentration 40; 5'): 63%
- % inhibition Apol 40' (DRC-2; concentration 40; 40'): 73%
- % inhibition ApPOL 90' (DRC-2; concentration 40; 90'): 75%
- % inhibition apPOL 180' (DRC-2; concentration 40; 180'): 74%
- % inhibition Apo pol 5' (DRC-2; concentration 80; 5'): 58%
- % inhibition Apol 40' (DRC-2; concentration 80; 40'): 72%
- % inhibition ApPOL 90' (DRC-2; concentration 80; 90'): 76%
- % inhibition apPOL 180' (DRC-2; concentration 80; 180'): 77%
- DNA Pol (primary screen value of the 186 hits; unit not given; 90 min, 10 µM): 46
- DNA Pol (primary screen value; head prints only 'DNA Pol'; 90 min, 10 µM): 46
